Source: US5212167A, “Modulation of receptor-mediated ion transport” (Trustees of Boston University, priority 1991, dated 1993)
pEC50: −log10 of the molar value. Counter-ions that a name gives are not always drawn.

Experiments:
[1] = system: non-NMDA glutamate receptor; experiment: Whole-cell patch clamp, kainate- or AMPA-induced currents in cultured chick spinal cord neurons; type: cell-based
Experimental: (§1) Cultures of dissociated spinal cord neurons were prepared from 7-day chick embryos as described by Wu et al. (Mol. Pharmacol. 37:597-602 (1990)). Briefly, dissociated cells were plated on collagen-coated 35-mm tissue culture dishes in Eagle's minimum essential medium supplemented with 2.4 mM glutamine, 10% (v/v) heat-inactivated horse serum, 5% (v/v) chick embryo extract, 100 units/ml penicillin, and 100 μg/ml streptomycin. Cultures were maintained in a humidified atmosphere of 5% CO2 /95% air at 37° C. Cytosine arabinoside (1 μM) was added after 36 hours to control the proliferation of non-neuronal cells. This medium was removed one day later and replaced with a similar medium supplemented with 20.5 mM glucose and 18 mM KCl, and containing 2.5% chick embryo extract. Fresh medium was added twice weekly. Cultured neurons were used in experiments 2-4 weeks after plating.
(§2) Electrophysiological experiments were carried out in 35-mm tissue culture dishes on the stage of an inverted phase-contrast microscope. Whole-cell currents were recorded by the whole-cell variant of the patch clamp technique described by Hamill et al. (Pflugers Arch. 391:85-100 (1981)). Patch electrodes were fabricated with a double pull from thin-wall borosilicate glass microcapillary pipets (Fischer) on a David Kopf vertical pipet puller (Model 700D). Electrode resistance was 5.2±0.12 M.OMEGA. (n=65) when filled with intracellular solution. The electrode solution usually contained (in mM): 10 KCl, 3 sodium gluconate, 140 potassium gluconate, 11 EGTA and 10 HEPES (pH adjusted to 7.2 with KOH). For GABA experiments, a high Cl-intracellular solution (in mM, 140 KCl, 3 NaCl, 1 MgCl2, 11 EGTA and 10 HEPES, pH adjusted to 7.2 with KOH) was used. The bath solution contained (in mM): 150 NaCl, 4 KCl, 1 CaCl2, […] 10 HEPES (pH adjusted to 7.2 with NaOH). Since NMDA-induced currents are subject to voltage-dependent block by extracellular Mg^2+, no magnesium salts were added to the bath solution. […]
(§3) Recordings were made using a Yale MK V amplifier. […] Series resistance, which initially measured 7.3± 0.14 M.OMEGA. […]

glycine receptor = experiment: Whole-cell patch clamp, glycine-induced currents in cultured chick spinal cord neurons; type: cell-based; conditions: for inhibition of the glycine response: 50 μM glycine, n=6
Experimental: as §1, §2, §3

GABA receptor = experiment: Whole-cell patch clamp, GABA-induced currents in cultured chick spinal cord neurons; type: cell-based
Experimental: as §1
Electrophysiological experiments were carried out in 35-mm tissue culture dishes on the stage of an inverted phase-contrast microscope. Whole-cell currents were recorded by the whole-cell variant of the patch clamp technique described by Hamill et al. (Pflugers Arch. 391:85-100 (1981)). […]
as §3

NMDA receptor = experiment: Whole-cell patch clamp, NMDA-induced currents in cultured chick spinal cord neurons; conditions: for enhancement of the NMDA response (percent change): 100 μM pregnenolone sulfate
Experimental: as §1
Electrophysiological experiments were carried out in 35-mm tissue culture dishes on the stage of an inverted phase-contrast microscope. Whole-cell currents were recorded by the whole-cell variant of the patch clamp technique described by Hamill et al. (Pflugers Arch. 391:85-100 (1981)). Patch electrodes were fabricated with a double pull from thin-wall borosilicate glass microcapillary pipets (Fischer) on a David Kopf vertical pipet puller (Model 700D). Electrode resistance was 5.2±0.12 M.OMEGA. (n=65) when filled with intracellular solution. The electrode solution usually contained (in mM): 10 KCl, 3 sodium gluconate, 140 potassium gluconate, 11 EGTA and 10 HEPES (pH adjusted to 7.2 with KOH). For GABA experiments, a high Cl-intracellular solution (in mM, 140 KCl, 3 NaCl, 1 MgCl2, 11 EGTA and 10 HEPES, pH adjusted to 7.2 with KOH) was used. The bath solution contained (in mM): 150 NaCl, 4 KCl, 1 CaCl2, 1 MgCl2 and 10 HEPES (pH adjusted to 7.2 with NaOH). Since NMDA-induced currents are subject to voltage-dependent block by extracellular Mg^2+, no magnesium salts were added to the bath solution. All experiments were performed at room temperature (23°-25° C.).
Recordings were made using a Yale MK V amplifier. After forming a tight seal (typically 1-10 G.OMEGA.) capacitative transients were minimized. The patch of membrane under the pipet tip was then ruptured by gentle suction to obtain the whole-cell configuration. Cells with series resistance greater than 10 M.OMEGA. were rejected. Series resistance, which initially measured 7.3± 0.14 M.OMEGA. (n=65), was compensated (>60%). Only cells with resting membrane potential more negative than -55 mV and input resistance in excess of 150 M.OMEGA. were used. All recordings were made with the cell membrane potential clamped at -70 mV. Currents were filtered at 1 kHz using an 8-pole Bessel filter and digitized (40 ms/point) using an on-line data acquisition system (pClamp, Axon Instruments).
Drug solutions were applied to single neurons by pressure ejection (15 psi) from 7-barrel pipets (Choi et al., J. Neurophysiol 45:605-620 (1981) and Chan, C. Y. and D. H. Farb, J. Neurosci. 5:2365-2373 (1985)). Pipets were pulled from Omega dot tubing to a tip diameter of about 1 μm per barrel and broken back to about 3-5 μm per barrel after filling. Seven-barrel pressure pipets were positioned approximately 50μm from the neuronal soma. Under these conditions, the drug solution in the pressure pipet rapidly and effectively replaces the solution surrounding the target neuron, with less than 10% dilution (Choi and Fischbach, J. Neurophysiol. 45:605-620 (1981)).
All drugs were obtained from Sigma, with the exception of AMPA hydrobromide (Research Biochemicals) and pregnenolone sodium sulfate (Steraloids). Stock solutions of steroids were prepared in dimethyl sulfoxide (final concentration, 0.5%, v/v).

CC(=O)C1CCC2C3CC=C4CC(OS(=O)(=O)O)CCC4(C)C3CCC12C (centres unmarked) [pregnenolone sulfate]
effect on response elicited by AMPA ([1]; AMPA-induced current): slightly inhibited | effect on response elicited by kainate ([1]; kainate-induced current): slightly inhibited | effect on non-NMDA glutamate-induced activity (in words) ([1]; summary statement): inhibited | inhibition of the glycine response (glycine receptor; 5 μM pregnenolone sulfate): 61±2% | inhibition of the glycine response (glycine receptor; 100 μM pregnenolone sulfate): 91±2% | effect on glycine receptor-mediated ion channel activity (in words) (glycine receptor; summary statement): slight decrease | pEC50 (GABA receptor; FIG. 2 dose response, read-out: EC50 for inhibition of the GABA response): 5.15 | effect on GABA receptor-mediated ion channel activity (in words) (GABA receptor; summary statement): slight decrease | potentiation of the NMDA response in the presence of maximal glycine versus without added glycine (NMDA receptor; 10 μM glycine present): did not differ significantly | increase of response to NMDA (NMDA receptor; 30 μM NMDA, 100 μM steroid, -70 mV): approximately threefold | enhancement of the NMDA response (percent change) (NMDA receptor; 100 μM NMDA, n=4, mean ±SEM): 86±7.5% | enhancement of the NMDA response (percent change) (NMDA receptor; 1 mM NMDA, n=2, mean ±SEM): 1.3±1.3% | increase in the ionic current across the cellular membrane (NMDA receptor; appropriate concentration (summary statement)): 3 fold | pEC50 (NMDA receptor; read-out: EC50 for enhancement of the NMDA response, FIG. 2 dose response): 4.24

NCC(=O)O [glycine, reference compound]
potentiation of the NMDA response by glycine in the presence of pregnenolone sulfate (NMDA receptor; 10 μM glycine, 100 μM pregnenolone sulfate present): still evident

C[C@]12CCC(=O)C=C1CC[C@@H]1[C@@H]2[C@@H](O)C[C@@]2(C)[C@H]1CC[C@]2(O)C(=O)CO [Hydrocortisone, reference compound]
enhancement of NMDA-induced current (in words) (NMDA receptor; 100 μM steroid): failed to enhance | inhibition of the NMDA response (NMDA receptor; 100 μM steroid, n=6, mean ±SEM): 15±2.4%
